According to patent US4162325A, “N-substituted lactams” (UCB, Societe Anonyme, priority 1976, dated 1979):
Values joined by “and” are separate entries in the source; they are usually repeats but may differ in a detail not shown here. Equal entries are not always repeated. Where two headings read alike, the source gives them in different places.

Assays:
[1] = system: papillary muscle isolated from the rabbit heart; experiment: cardiac activity on isolated papillary muscle of rabbit heart; conditions: for activation at 100 µg/mL / activation at 10 µg/mL: Oryctolagus cuniculus, read-out: percentage increase of the tension measured
From the text: This has been shown by the method employing the papillary muscle isolated from the rabbit heart, according to the method of H. G. Schoepke and F. E. Shiddeman, J. Pharmacol. Exptl. Therap. 133,(1961), 171.
The reactivity of various compounds of general formula (I) after each experiment is checked against theophylline. Table IV gives some of the results observed, expressed as a percentage increase of the tension measured.

[2] = system: rats; experiment: active avoidance test, memory retention (paw pressure withdrawal) in rats; format: in vivo, rat; conditions: for minimal effective dose: Rattus norvegicus, sc, 24 h, read-out: Active dose (minimum dose which reduces the stimulus to below 11 graduations); for activity compared with piracetam in the active avoidance test: rat, subcutaneous
From the text: (A) The action on mnemic processes is first shown by the ability of the compounds to improve a type of memory retention in rats. The principle of the active avoidance test (see M. GREINDL and S. PREAT, Arch. Int. Pharmacodyn. Therap. 223,(1976),(1),168-171) developed in our laboratories and used for this purpose may be described as follows: the reaction of withdrawal of a rat's paw when subjected to an increasing and measured pressure is observed. The pressure at which the withdrawal reaction takes place is called the reaction threshold. This threshold is expressed by the number of graduations of the scale of the apparatus used (Analgesy meter UGO BASILE - Milano) and thus corresponds to the minimum pressure which brings about withdrawal when applied to the animal's paw. It is read directly from the scale of the apparatus used.
Inversely, animals treated with a substance having a positive effect on the mnemic processes (for example, piracetam) show a significant degree of retention: the stimulus at which the rats react by a reflex of avoidance is statistically lower than that of the control animals. A minimum of 20 rats are used per test (10 treated rats and 10 control rats) and the active dose is defined as the minimum dose which reduces the stimulus to below 11 graduations.
Subcutaneous administration of compounds of general formula (I), namely compounds A, G, H, I, J, K, L, N, O, P, Q, R, V, W, give, under these conditions, the effects indicated in Table I below.

[3] = system: mice; experiment: protection against aggressions of the hypoxic type (lethality induced by oxydipentonium chloride) in mice; format: in vivo; conditions: 1 h, mouse, intraperitoneal, one hour before curarizer, read-out: Proportion of survivors, treated animals; for responders at 100 µM, 100 µmol/kg: 0.1 mM/kg (F 24, G 25.5, H 24, I 30, J 21, K 23, L 23 mg/kg), control 1/10, F 0/10
Description: Protection against aggressions of the hypoxic type is shown by a reduction of the lethality induced by a curarizer, the duration of action of which is short, namely oxydipentonium chloride (Brevatonal). At the doses used, this curarizer brings about a respiratory depression which, in turn, brings about a hypoxi-hypercapnic syndrome. A compound capable of protecting the brain during this brief period of hypoxia ensures survival. The compounds are administered to groups of 10 mice one hour before the injection of the curarizer; in a parallel test, a control group of 10 mice are given physiological salt solution before the curarizer. This test has also been developed in our laboratories (see, for the principle of this test, S. LEVIS et al.; Arch. Int. Pharmacodyn. Therap, 93,(1953),1,46-54).
Intraperitoneal administration of compounds of general formula (I), namely, products A, B, F, G, H, I, J, K, L, gives the results shown in Table III: […]

[4] = system: rat; conditions: 30 mg/kg (0.2 mM/kg), Giurgea et al., loc.cit.; cited from earlier work
[5] = toxicity, LD50 in rat; conditions: in vivo, intravenous
From the text: The tested compounds have a remarkably low toxicity. Table V gives the toxicities, after intravenous administration, of some of the compounds of the present invention: […]

[6] = system: rat; experiment: reduction of the spinal fixation time in rats; format: in vivo; conditions: intraperitoneal, spinal section after 35 minutes
From the text: (B) The action on mnemic processes is also shown by the reduction of the spinal fixation time, a test which has been described in literature (see C. GIURGEA & F. MOURAVIEFF-LESUISSE, Arch. Int. Pharmacodyn. 191/2,(1971),279) as an elementary memory model and which provides pharmacological reactivity in good correlation with clinical physiopathology. In the rat, after unilateral section of the cerebellum, there is a postural asymmetry of the hind paws. This asymmetry may persist, even after spinal section, if the animal has passed a sufficient period of time in this position. This time, which is called the spinal fixation time, is 45 minutes under the experimental conditions applied here.
On the other hand, if spinal section is performed before the expiry of this period of time, for example 35 minutes after the onset of the asymmetry, the latter disappears.
No animal treated with placebos retains the asymmetry under these conditions.
Inversely, any product which allows the rats to retain the asymmetry (thus effecting spinal fixation) when the spinal section is performed after 35 minutes, is considered to be active.
Intraperitoneal administration of compound A gives rise to the effects described in Table II. By "number of animals" is to be understood the number of animals which responded positively to the test, in relation to the number of animals tested at the indicated dose: […]

Cn1c(=O)c2[nH]cnc2n(C)c1=O [Theophylline, reference compound]
activation at 100 µg/mL ([1]; 100 μg/ml): 38%

NC(=O)CN1CCCC1=O [Piracetam, 2-oxo-1-pyrrolidineacetamide, reference compound]
minimal effective dose [2]: 3.5 mg/kg and 25 µmol/kg | responders at 320 µM, 45 mg/kg ([3]; ip, 0.32 mM/kg (A 64, I 95, J 68, Piracetam 45 mg/kg), control 1/10, Piracetam 0/10): 10% | responders at 1000 µM, 142 mg/kg ([3]; ip, 1.0 mM/kg (Piracetam 142 mg/kg), control 2/10): 40% | responders at 3200 µM, 454 mg/kg ([3]; ip, 3.2 mM/kg (Piracetam 454 mg/kg), control 1/10): 80% | Number of animals which responded positively / number tested [4]: 4/9

CC(C(=O)NCC(N)=O)N1C(=O)CCC1(C)C (stereo not drawn) [Compound H, 2-(alpha,5,5-trimethyl-2-oxo-1-pyrrolidineacetamido)-acetamide]
minimal effective dose [2]: 0.0024 mg/kg and 0.01 µmol/kg | activity compared with piracetam in the active avoidance test [2]: superior to that of piracetam | responders at 10 µM, 10 µmol/kg ([3]; 0.01 mM/kg (B 2.6, G 2.6, H 2.4 mg/kg), control B 1/10, G 1/10, H 2/10): 60% | responders at 100 µM, 100 µmol/kg [3]: 100% | activation at 10 µg/mL [1]: 10% | action against anoxia ([1]; same test (isolated papillary muscle, rabbit heart)): protective action against anoxia | LD50 [5]: > 3100 µmol/kg and > 747 mg/kg

CN(C)C(=O)CNC(=O)CN1CCCC1=O [Compound M, N,N-ddimethyl-2-(2-oxo-1-pyrrolidineacetamido)-acetamide]
activation at 10 µg/mL [1]: 10%

NC(=O)CNC(=O)CN1CCCC1=O [A, 2-(2-Oxo-1-pyrrolidineacetamido)-acetamide]
minimal effective dose [2]: 0.4 mg/kg and 2 µmol/kg | activity compared with piracetam in the active avoidance test [2]: superior to that of piracetam | Number of animals which responded positively / number tested ([6]; 6.4 mg/kg (0.032 mM/kg)): 3/7 | Number of animals which responded positively / number tested ([6]; 20.0 mg/kg (0.1 mM/kg)): 4/5 | responders at 320 µM, 320 µmol/kg ([3]; 0.32 mM/kg (A 64, I 95, J 68, Piracetam 45 mg/kg), control 1/10, Piracetam 0/10): 70% | LD50 [5]: > 5000 µmol/kg and > 1000 mg/kg

CCCCC1CCN(CC(=O)NCC(N)=O)C1=O (stereo not drawn) [Compound X, 2-(3-n-butyl-2-oxo-1-pyrrolidineacetamido)-acetamide]
activation at 100 µg/mL [1]: 25%

CN(CC(=O)Nc1ccccc1)C(=O)CN1CCCC1=O [Compound E, 2-(N-Methyl-2-oxo-1-pyrrolidineacetamido)-N-phenylacetamide]
activation at 100 µg/mL [1]: 22%

CCC(C(=O)NCC(N)=O)N1CCCC1=O (stereo not drawn) [Compound K, 2-(alpha-ethyl-2-oxo-1-pyrrolidineacetamido)-acetamide]
minimal effective dose [2]: 4.54 mg/kg and 20 µmol/kg | activity compared with piracetam in the active avoidance test [2]: superior to that of piracetam | responders at 100 µM, 100 µmol/kg [3]: 70% | activation at 100 µg/mL [1]: 44% | LD50 [5]: > 2500 µmol/kg and > 568 mg/kg
